Entries after “also recorded” stand apart in the source; their conditions may differ.
Key:
CD44 = assay: Ligand-induced CD44 cleavage / generation of CD44-ICD in CD44-transfected cells (Western blot, anti-V5); type: cell-based
Excerpt: FIG. 5. (A) Schematic representations of truncated CD44 constructs and putative cleavage sites of CD44. Starting amino acid sequences of truncated (ΔE) or intracellular (ICD) CD44 constructs and predicated proteolytic cleavage sites are indicated by arrows. Full-length (FL) and all ICD constructs contain C-terminal V5 tag, whereas all ΔE constructs harbor N-terminal HA tag located immediately after the signal peptide in addition to the C-terminal V5 tag. (B) Expression of truncated CD44 constructs in HEK293 cells. The lysates from the cells transfected with indicated constructs were analyzed by Western blot analyses. The locations of precursor polypeptide encoded by each constructs as well as the cleavage products (e.g. S1, T1, and T2) are shown on the right side of each blot. The lysates from full-length CD44-transfected cells grown in the absence (FL) or presence (FL+hyaluronan) of hyaluronan are shown as controls.
FIG. 6. Ligand-induced generation of CD44-ICD. Cells were treated for 24 hours with solvent only (Control), hyaluronan, hyaluronan plus Cpd. E, phorbol ester TPA, and TPA plus hyaluronan, and the lysates were analyzed by Western blotting using anti-V5 antibody.
(§1) It has been previously reported that high molecular weight forms of hyaluronan (HA) induce cell growth arrest (Morrison et al., Genes and Development, 15, 968-980, 2001; Herrlich et al., Ann. NY Acad. Sci. 910, 106-118, 2000).

HEK293 cells = assay: Hyaluronan-mediated growth retardation, count of EGFP-positive CD44-transfected HEK293 cells; type: cell-based; details: 40 hour incubation
Procedure: FIG. 7. Effects of a γ-secretase inhibitor in hyaluronan-mediated growth retardation. HEK293 cells were transfected with constructs encoding both full-length CD44 and enhance green fluorescence protein (EGFP) in a single plasmid. Identical number of transfected cells were plated into multiple dishes and incubated with hyaluronan, hyaluronan plus Cpd. E, TPA, and TPA plus Cpd. E. After 40 hour incubation, the number of EGFP-positive cells were counted. Values represent the mean±s.d.
as §1

γ-secretase [1] = assay: Accumulation of membrane-associated CD44 C-terminal fragments in CD44-transfected CHO cells (Western blot, anti-V5); type: cell-based; details: CHO cells transfected with CD44 C-terminal V5-tag, 16 hours
Procedure: FIG. 1. The accumulation of membrane-associated C-terminal derivatives of CD44 by a γ-secretase inhibitor. The CHO cells transfected with constructs encoding CD44 with C-terminal V5-tag were incubated in the presence of the indicated concentrations of γ-secretase inhibitor Compound E (Cpd. E) for 16 hours. Detergent lysates were analyzed by Western blot analyses (4-20% Tris-Glycine SDS-PAGE) using anti-V5 antibody.
When constructs encoding full-length CD44 with C-terminal V5 epitope tag were transiently expressed, full-length CD44 (˜85 kDa) was constitutively processed to generate membrane-associated C-terminal fragments with apparent molecular weights of ˜19 to 22 kDa (FIG. 1). First, experiments were performed to determine whether a γ-secretase inhibitor blocks the putative intramembrane cleavage of CD44 to cause an accumulation of CD44 similar to that observed for APP and ErbB4 (Lee, H.-J., Jung, K.-M., Huang, Y. Z., Bennett, L. B., Lee, J. S., Mei, L. and Kim, T.-W., Presenilin-dependent γ-secretase-like intramembrane cleavage of ErbB4. J. Biol. Chem., 277:6318-6329 (2002)).

γ-secretase [2] = assay: In vitro CD44-ICD generation using membrane fractions from CD44-transfected 293 cells; type: biochemical; design: dose or concentration left out as unconfirmed; details: membrane fractions from dW and dAsp cells, 37° C.
Procedure: FIG. 4. In vitro generation of the CD44 intracellular domain (CD44-ICD). Membrane fractions prepared from either dW or dAsp cells transfected with full-length CD44 were incubated at 37° C. for the indicated hours with or without Cpd E (1 mM) or MG132 (50 mM). After the incubation, both the pellet (A) and the supernatant (B) were analyzed by Western blot analyses […] using anti-V5 antibody.
The incubation of the cytosol-free membrane fractions from dW cells transfected with CD44 led to the generation of two fragments (T1 and T2) in the membrane fractions (FIG. 4A) and the release of V5-epitope-tagged CD44-ICD into the soluble fraction (FIG. 4B).

Compound	levels of S1 and T1 cleavage products (CD44; cells treated with high molecular weight forms of HA)	generation of CD44-ICD (CD44; cells treated with high molecular weight forms of HA, 24 hours)	generation of S1 and T2 cleavage (CD44; full-length CD44-transfected HEK293 cells, FL vs. FL+hyaluronan)	growth of cells transfected with CD44 (HEK293 cells; HEK293 cells, full-length CD44 and EGFP)	accumulation of transgene-derived CD44 C-terminal fragments (γ-secretase [1])	generation of T1 fragments (γ-secretase [2])	inhibition of the HA-induced accumulation of S1 and T1 cleavage products (CD44; hyaluronan plus Compound E)	effect on T2 cleavage products (CD44; hyaluronan plus Cpd. E, 24 hours)	effect on the growth inhibition induced by HA (HEK293 cells; hyaluronan plus Cpd. E)
hyaluronan [HA]	elevated	led to the generation of CD44-ICD	increased generation	induced growth inhibition; also recorded: led to an inhibition of cell proliferation					
C[C@H](NC(=O)Cc1cc(F)cc(F)c1)C(=O)N[C@H]1N=C(c2ccccc2)c2ccccc2N(C)C1=O [Compound E]					led to the accumulation	not blocked	didn't inhibit	selectively affected	reverted the growth-inhibition

Source: patent publication US20050031610A1, “CD44-related fragments, compositions and methods” (priority 2002, published 2005)
